Assay results: patent publication US20150089682A1, “ALS Inhibitor Herbicide Tolerant B. Napus Mutants” (priority 2012, published 2015)

B1: Wild-type: Arabidopsis thaliana wild-type ALS expressed in Escherichia coli, crude protein extract (protein, UniProt P17597 56-670, looked up)
Acetolactate synthase, …: SSSPSSISAVLNTTTNVTTTPSPTKPTKPETFISRFAPDQPRKGADILVEALERQGVETVFAYPGGASMEIHQALTRSSSIRNVLPRHEQGGVFAAEGYARSSGKPGICIATSGPGATNLVSGLADALLDSVPLVAITGQVPRRMIGTDAFQETPIVEVTRSITKHNYLVMDVEDIPRIIEEAFFLATSGRPGPVLVDVPKDIQQQLAIPNWEQAMRLPGYMSRMPKPPEDSHLEQIVRLISESKKPVLYVGGGCLNSSDELGRFVELTGIPVASTLMGLGSYPCDDELSLHMLGMHGTVYANYAVEHSDLLLAFGVRFDDRVTGKLEAFASRAKIVHIDIDSAEIGKNKTPHVSVCGDVKLALQGMNKVLENRAEELKLDFGVWRNELNVQKQKFPLSFKTFGEAIPPQYAIKVLDELTDGKAIISTGVGQHQMWAAQFYNYKKPRQWLSSGGLGAMGFGLPAAIGASVANPDAIVVDIDGDGSFIMNVQELATIRVENLPVKVLLLNNQHLGMVMQWEDRFYKANRAHTFLGDPAQEDEIFPNMLLFAAACGIPAARVTKKADLREAIQTMLDTPGPYLLDVICPHQEHVLPMIPSGGTFNDVITEGDGRIKY
B2: P197S: Arabidopsis thaliana P197S-mutant ALS expressed in Escherichia coli, crude protein extract (protein, UniProt P17597 56-670, looked up, variant P197S)
Acetolactate synthase, …: SSSPSSISAVLNTTTNVTTTPSPTKPTKPETFISRFAPDQPRKGADILVEALERQGVETVFAYPGGASMEIHQALTRSSSIRNVLPRHEQGGVFAAEGYARSSGKPGICIATSGPGATNLVSGLADALLDSVPLVAITGQVSRRMIGTDAFQETPIVEVTRSITKHNYLVMDVEDIPRIIEEAFFLATSGRPGPVLVDVPKDIQQQLAIPNWEQAMRLPGYMSRMPKPPEDSHLEQIVRLISESKKPVLYVGGGCLNSSDELGRFVELTGIPVASTLMGLGSYPCDDELSLHMLGMHGTVYANYAVEHSDLLLAFGVRFDDRVTGKLEAFASRAKIVHIDIDSAEIGKNKTPHVSVCGDVKLALQGMNKVLENRAEELKLDFGVWRNELNVQKQKFPLSFKTFGEAIPPQYAIKVLDELTDGKAIISTGVGQHQMWAAQFYNYKKPRQWLSSGGLGAMGFGLPAAIGASVANPDAIVVDIDGDGSFIMNVQELATIRVENLPVKVLLLNNQHLGMVMQWEDRFYKANRAHTFLGDPAQEDEIFPNMLLFAAACGIPAARVTKKADLREAIQTMLDTPGPYLLDVICPHQEHVLPMIPSGGTFNDVITEGDGRIKY

Assays:
[1] = molecular target: T1, Arabidopsis thaliana W574L-mutant ALS (Arabidopsis thaliana, UniProt P17597, E575Q/W574L); assay: biochemical; conditions: for IC50: read-out: pI50 W574L (converted); for Resistance Factor W574L: relative to WT, from measured pI50
T1 construct: vector-encoded N-terminal fusion of pET-32a(+) (Trx/His/S tag by own knowledge); made in house; host or cells: Escherichia coli AD494
Method: (§1) Bacteria were grown at 37° C. in LB-medium containing 100 mg/1 carbenicillin and 25 mg/1 canamycin, induced with 1 mM isopropyl-β-D-thiogalactopyranoside at an OD600 of 0.6, cultivated for 16 hours at 18° C. and harvested by centrifugation. Bacterial pellets were resusupended in 100 mM sodium phosphate buffer pH 7.0 containing 0.1 mM thiamine-pyrophosphate, 1 mM MgCl2, and 1 μM FAD at a concentration of 1 gram wet weight per 25 ml of buffer and disrupted by sonification. The crude protein extract obtained after centrifugation was used for ALS activity measurements.
(§2) Assays were initiated by adding enzyme and terminated after 75 min incubation at 30° C. by the addition to 40 μl 0.5 M H2SO4. […] Reaction velocities were tiffed to the Michalis-Menten equation with the XLFit curve fitting program.

[2] = molecular target: T2, Arabidopsis thaliana P197S-mutant ALS (Arabidopsis thaliana, UniProt P17597, E575Q/P197S); assay: biochemical; conditions: for IC50: read-out: pI50 P197S (converted); for Resistance Factor P197S: relative to WT, from measured pI50
T2 construct: vector-encoded N-terminal fusion of pET-32a(+) (Trx/His/S tag by own knowledge); made in house; host or cells: Escherichia coli AD494
Method: as §1, §2

[3] = molecular target: T3, Arabidopsis thaliana wild-type ALS (Arabidopsis thaliana, UniProt P17597, E575Q); assay: biochemical; conditions: measured, crude extract of E. coli expressed enzyme; for IC50: read-out: pI50 WT (converted)
T3 construct: vector-encoded N-terminal fusion of pET-32a(+) (Trx/His/S tag by own knowledge); made in house; host or cells: Escherichia coli AD494
Method: as §1, §2

[4] = molecular target: T4, Arabidopsis thaliana S653N-mutant ALS (Arabidopsis thaliana, UniProt P17597, E575Q/S653N); assay: biochemical; conditions: for IC50: read-out: pI50 S653N (converted); for Resistance Factor S653N: relative to WT, from measured pI50
T4 construct: vector-encoded N-terminal fusion of pET-32a(+) (Trx/His/S tag by own knowledge); made in house; host or cells: Escherichia coli AD494
Method: as §1, §2

[5] = test system: spring oilseed rape variety ABILITY; assay: Herbicide tolerance in the field, visible phytotoxicity; format: in vivo, Brassica napus; conditions: ABILITY, field, 18 days after application, 0%=no phytotoxic effects, 100%=all plants killed
From the text: (§3) Seeds of spring oilseed rape homozygous for HETO108 and HETO121 were sown in a field according to typical practical agricultural methods. The registered spring oilseed rape variety ABILITY served as a comparison. All plants were cultivated up to BBCH stage 14 (four true leaves of the oilseed rape plants). Afterwards, the herbicides mentioned in table 2 have been applied to the oilseed rape plants by using specific spray equipment for small plot applications. The water amount used was 200 L/ha.

[6] = test system: spring oilseed rape homozygous for HETO108 and HETO121; assay: as above; format: in vivo, Brassica napus; conditions: HETO108-HETO121, field, 18 days after application, 0%=no phytotoxic effects, 100%=all plants killed
From the text: as §3

[7] = molecular target: T5, mixture of P197S and W574L ALS enzymes (Arabidopsis thaliana, UniProt P17597); format: biochemical; conditions: for pI50 P197S & W574L: calculated for a mixture of equal activities of the two enzymes, pI50=3.0 used where measured <4; for Resistance Factor P197S & W574L: relative to WT, calculated
T5 construct: crude E. coli extract was used
Method: as §2
(§4) To characterize the response of a mixture of two different ALS enzymes to a given ALS inhibitor the following assumptions were made: • a inhibition is competitive and reversible • b. in the absence of inhibitor, equal activities of the ALS (mutant) enzymes 1 and 2 are present
(§5) Using experimentally determined pI50-values for various ALS-inhibiting herbicides, enzyme activities at different inhibitor concentrations were calculated (see Theory) for each ALS enzyme. Total ALS activity at any given inhibitor concentration is the sum of the activity of (mutant) enzyme 1 and (mutant) enzyme 2. If the experimentally determined pI50-value was <4, pI50=3.0 was used for the calculations. If the calculated pI50-value was 3.0, the pI50 was redefined as <4.

[8] = molecular target: T6, mixture of S653N and W574L ALS enzymes (Arabidopsis thaliana, UniProt P17597); format: biochemical; conditions: for pI50 S653N & W574L: calculated for a mixture of equal activities of the two enzymes, pI50=3.0 used where measured <4; for Resistance Factor S653N & W574L: relative to WT, calculated
T6 construct: crude E. coli extract was used
Method: as §2, §4, §5

[9] = Kinetic parameters of enzymatic activity of AHAS mutants; format: biochemical, Arabidopsis thaliana; conditions: pyruvate varied 0-120 mM
Method: as §1, with “The coding sequences of the Arabidopsis thaliana wild-type and P197S-, W574L-, and S653N-mutant ALS genes were cloned into Novagen pET-32a(+) vectors and the vectors transformed into Escherichia coli AD494 according to the instructions of the manufacturer. Bacteria were” for “Bacteria were”
ALS assays were carried out in 96-well microtiter plates using a modification of the procedure described by Ray (1984), Plant Physiol 75:827-831. The reation mixture contained 20 mM potassium phosphate buffer pH 7.0, 20 mM sodium pyruvate, 0.45 mM thiamine-pyrophosphate, 0.45 mM MgCl2, 9 μM FAD, ALS enzyme and various concentrations of ALS inhibitors in a final volume of 90 μl. Assays were initiated by adding enzyme and terminated after 75 min incubation at 30° C. by the addition to 40 μl 0.5 M H2SO4. […] The pI50 values measured for the different mutant AHAS proteins and calculated for the mixtures of two different AHAS enzymes are shown in Table 3. […] Reaction velocities were tiffed to the Michalis-Menten equation with the XLFit curve fitting program.

[10] = measured, crude extract of E. coli expressed enzyme
[11] = Brassica napus, topical, 432 h, AI dose rate 60 gai/ha, read-out: % phytotox
[12] = Brassica napus, topical, 432 h, AI dose rate 12.5 gai/ha, read-out: % phytotox
[13] = Brassica napus, topical, 432 h, AI dose rate 10 gai/ha, read-out: % phytotox
[14] = Brassica napus, topical, 432 h, AI dose rate 5 gai/ha, read-out: % phytotox

Molecule | IC50 [1, 10] | Resistance Factor W574L [1] | IC50 [2, 10] | Resistance Factor P197S [2] | IC50 [3] | IC50 [4, 10] | Resistance Factor S653N [4] | pI50 P197S & W574L [7] | Resistance Factor P197S & W574L [7] | pI50 S653N & W574L [8] | Resistance Factor S653N & W574L [8] | other results
COc1cc(OC)nc(NC(=O)NS(=O)(=O)c2ncccc2C(=O)N(C)C)n1 [Nicosulfuron, nicosulfuron] | > 100000 nM | >794 | 1000 nM | 8 | 126 nM | 2510 nM | 20 | 4.5 | 251 | 4.3 | 398 | pest or weed control at 60 g/ha [5, 11]: 100%; pest or weed control at 60 g/ha [6, 11]: 55%
COc1cc(OC)n2nc(NS(=O)(=O)c3c(C(F)(F)F)ccnc3OC)nc2n1 [Pyroxsulam, pyroxsulam] |  | >39810 |  | 251 |  |  | 63 | 4.8 | 6310 | 5.3 | 1995 | pI50 W574L [1, 10]: <4; pI50 P197S [2, 10]: 6.2; pI50 WT [3]: 8.6; pI50 S653N [4, 10]: 6.8; % phytotox ([5]; AI dose rate 50 gai/ha): 99%; % phytotox ([6]; AI dose rate 50 gai/ha): 0%
CCS(=O)(=O)c1cccnc1S(=O)(=O)NC(=O)Nc1nc(OC)cc(OC)n1 [Rimsulfuron, rimsulfuron] | 10000 nM | 316 | 398 nM | 13 | 31.6 nM | 20 nM | 1 | 5.7 | 63 | 6.3 | 16 | pest or weed control at 12.5 g/ha [5, 12]: 100%; pest or weed control at 12.5 g/ha [6, 12]: 68%
CCS(=O)(=O)c1nc2ccccn2c1S(=O)(=O)NC(=O)Nc1nc(OC)cc(OC)n1 [Sulfosulfuron, sulfosulfuron] | > 100000 nM | >3981 | 39800 nM | 1585 | 25.1 nM | 126 nM | 5 | 3.6 | 10000 | 5.4 | 158 | pest or weed control at 10 g/ha [5, 13]: 100%; pest or weed control at 10 g/ha [6, 13]: 3%
COC(=O)c1sccc1S(=O)(=O)NC(=O)Nc1nc(C)nc(OC)n1 [Thifensulfuron-Methyl, thifensulfuron-methyl] | 63100 nM | 1585 | 7940 nM | 200 | 39.8 nM | 200 nM | 5 | 4.6 | 631 | 5.4 | 100 | pest or weed control at 5 g/ha [5, 14]: 85%; pest or weed control at 5 g/ha [6, 14]: 0%
B1 |  |  |  |  |  |  |  |  |  |  |  | Km [9]: 2.1 ± 0.1 mM; Vmax [9]: 42.7 ± 1.3 ΔE/min mg
B2 |  |  |  |  |  |  |  |  |  |  |  | Km [9]: 5.5 ± 0.8 mM; Vmax [9]: 50.0 ± 6.1 ΔE/min mg
